Test results published in patent US20080207728A1, “BICYCLIC ACYLTRYPTOPHANOLS” (priority 2006, published 2008).

target: T1, human FSH receptor (Homo sapiens, UniProt P23945); experiment: HTRF assay for measuring cAMP in cells (FSH antagonism); type: cell-based; settings: Table 1; hFSHR clone 16 cells (CHO cells stably transfected with the human FSH receptor), in the presence of 1e-9 mol/l hFSH, 37° C. for 2 h; read-out: IC50 (FSH-antagonistic effect in the HTRF assay)
T1 construct: expressed in transfected cells; host or cells: CHO cells (hFSHR clone 16)
T1 sequence (P23945 18-695): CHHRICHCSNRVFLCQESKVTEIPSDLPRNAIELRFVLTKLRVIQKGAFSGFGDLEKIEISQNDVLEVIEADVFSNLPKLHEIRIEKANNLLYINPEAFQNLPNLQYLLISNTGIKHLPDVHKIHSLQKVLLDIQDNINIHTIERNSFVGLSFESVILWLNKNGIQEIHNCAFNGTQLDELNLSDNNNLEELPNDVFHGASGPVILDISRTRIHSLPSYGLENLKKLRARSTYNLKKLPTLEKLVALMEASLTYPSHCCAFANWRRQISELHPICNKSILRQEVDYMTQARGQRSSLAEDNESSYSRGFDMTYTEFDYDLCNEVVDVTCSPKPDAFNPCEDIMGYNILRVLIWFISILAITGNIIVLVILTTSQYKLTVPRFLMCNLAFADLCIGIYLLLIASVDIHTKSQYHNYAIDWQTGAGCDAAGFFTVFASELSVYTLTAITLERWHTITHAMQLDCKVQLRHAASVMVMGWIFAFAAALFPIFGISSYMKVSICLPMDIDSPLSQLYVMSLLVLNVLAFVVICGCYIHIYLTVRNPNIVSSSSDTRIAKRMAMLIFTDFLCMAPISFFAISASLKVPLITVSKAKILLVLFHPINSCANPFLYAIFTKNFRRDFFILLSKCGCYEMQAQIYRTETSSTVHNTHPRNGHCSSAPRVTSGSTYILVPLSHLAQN
Description: HTRF Assay for Measuring cAMP in Cells
The method is based on a competitive immunoassay between native cAMP, which has been produced by the cells, and cAMP which is labelled with XL665. The tracer binding was visualized by a monoclonal antibody, anti-cAMP labelled with cryptate [HTRF=homogeneous time-resolved fluorescence].
The specific signal is inversely proportional to the cAMP concentration of the samples employed.
The 665 nm/620 nm fluorescence ratio was evaluated.
The following material was used: 96-well plates for the tissue culture, 96-well plates with black edge and black base (e.g. Fluotrac 600 from Greiner), 96-well plates for the substance dilutions of polypropylene and cAMP Femtomolar (4000 wells Kit, CIS Bio International # 62AM1PEC).
The following reagents were used: BSA (bovine serum albumin) Fraction V protease-free, IBMX (3-isobutyl-1-methylxanthine), hFSH (human follicle stimulating hormone), Triton X-100 analytical grade, potassium fluoride analytical grade, G 418 (Geneticin) and Accutase.
Buffer 1 (washing and testing buffer) contained PBS, 1 mM CaCl2, 1 mM MgCl2, 0.2% glucose; 0.1% BSA, 1 mM IBMX.
Buffer 2 (2× lysis buffer) contained 1% Triton X-100 in PBS (without CaCl2 and MgCl2).
Buffer 3 (assay buffer) contained 50 mM potassium phosphate buffer (pH 7.0); 800 mM potassium fluoride; 0.2% BSA (always added fresh).
On day 1, the cells were seeded in 96-well plates (3×10^4 cells per well hFSHR clone 16 cells (CHO cells stably transfected with the human FSH receptor in 150 μl of medium).
The next day, test substance dilutions were made up. For this purpose, all the substances were diluted in ice-cold buffer 1 (with or without hFSH), and the substance dilutions were placed on ice until applied to the cells.
The cell supernatant was then aspirated off, and the cells were washed 2× with 200 μl of buffer 1. The cells were treated with 60 μl of the appropriate substance concentrations at 37° C. for 2 h. The cells were then lysed with 60 μl of buffer 2 (put onto the supernatant) (on a plate shaker at RT for 30 min).
The test conjugates (XL-665 and anti-cAMP cryptate) were diluted in buffer 3 in accordance with the manufacturers' information. The actual mixture for measurement was pipetted into a black 96-well plate (in each case 15 μl of the cell lysate diluted with 35 μl of buffer 1; firstly 25 μl of XL-665 conjugate were pipetted and, after 10 min, 25 μl of the anti-cAMP cryptate were added). This is followed by incubation at RT for 90 minutes. The measurement was carried out in a PheraStar (BMG).
Tissue Culture Conditions
Dose-effect curve (hFSH) for the human receptor: 1e-8, 3e-9, 1 e-9, 3e-10, 1 e-10, 3e-11, 1e-11, 3e-12 mol/l.
The test substances were employed in suitable dilutions in the absence (test for agonism) and in the presence of 1e-9 mol/l hFSH.
The values of the well ratio were averaged and then entered directly in SigmaPlot versus the concentrations. The maximum and minimum values were determined for each plate, and half the difference is to be regarded as IC50.

Going from N#CCc1ccc(-c2cc3c(c(C(=O)N[C@@H](CO)Cc4c[nH]c5ccccc45)c2)OCC3)cc1 [Example 73, 5-(4-Cyanomethyl-phenyl)-2,3-dihydro-benzofuran-7-carboxylic acid [(R)-1-hydroxymethyl-2-(1H-indol-3-yl)-ethyl]-amide] to O=C(N[C@@H](CO)Cc1c[nH]c2ccccc12)c1cc(-c2ccc3ccccc3c2)cc2c1OCC2 [Example 43, 5-Naphthalen-2-yl-2,3-dihydro-benzofuran-7-carboxylic acid [(R)-1-hydroxymethyl-2-(1H-indol-3-yl)-ethyl]-amide], the IC50 rises from 2000 nM to 4000 nM (2-fold).

Compared with CNC(=O)c1cc(F)cc(-c2cc3c(c(C(=O)N[C@@H](CO)Cc4c[nH]c5ccccc45)c2)OCC3)c1 [Example 82, 5-(3-Fluoro-5-methylcarbamoyl-phenyl)-2,3-dihydro-benzofuran-7-carboxylic acid [(R)-1-hydroxymethyl-2-(1H-indol-3-yl)-ethyl]-amide], CNC(=O)c1ccc(-c2cc3c(c(C(=O)NC(CO)Cc4c[nH]c5cccc(F)c45)c2)OC(C)(C)C=C3)cc1Cl (stereo not drawn) [Example 88, 6-(3-Chloro-4-methylcarbamoyl-phenyl)-2,2-dimethyl-2H-chromene-8-carboxylic acid [2-(4-fluoro-1H-indol-3-yl)-1-hydroxymethyl-ethyl]-amide] is 130-fold lower in IC50: 4000 nM for the first, 30 nM for the second.

same assay, conditions: Table 2; hFSHR clone 16 cells (CHO cells stably transfected with the human FSH receptor), in the presence of 1e-9 mol/l hFSH, 37° C. for 2 h; read-out: IC50 (FSH-antagonistic effect in the HTRF assay)

Compared with COC(=O)c1ccc(-c2cc3c(c(C(=O)N[C@@H](CO)Cc4c[nH]c5ccccc45)c2)OCCO3)cc1OC [Example 118, 4-{8-[(R)-1-Hydroxymethyl-2-(1H-indol-3-yl)-ethylcarbamoyl]-2,3-dihydro-benzo[1,4]dioxin-6-yl}-2-methoxy-benzoic acid methyl ester], CNC(=O)c1ccc(-c2cc3c(c(C(=O)N[C@@H](CO)Cc4c[nH]c5ccccc45)c2)OCCO3)cc1 [Example 142, 7-(4-Methylcarbamoyl-phenyl)-2,3-dihydro-benzo[1,4]dioxine-5-carboxylic acid [(R)-1-hydroxymethyl-2-(1H-indol-3-yl)-ethyl]-amide] is 1.5-fold higher in IC50: 130 nM for the first, 200 nM for the second.

Compared with N#Cc1cc(-c2cc3c(c(C(=O)N[C@@H](CO)Cc4c[nH]c5ccccc45)c2)OCCO3)ccc1F [Example 104, 7-(3-Cyano-4-fluoro-phenyl)-2,3-dihydro-benzo[1,4]dioxine-5-carboxylic acid [(R)-1-hydroxymethyl-2-(1H-indol-3-yl)-ethyl]-amide], CNC(=O)c1cccc(C#Cc2cc3c(c(C(=O)NC(CO)Cc4c[nH]c5cc(F)ccc45)c2)OCCCC3)c1 (stereo not drawn) [Example 91, 7-(3-Methylcarbamoyl-phenylethynyl)-2,3,4,5-tetrahydro-benzo[b]oxepine-9-carboxylic acid [2-(6-fluoro-1H-indol-3-yl)-1-hydroxymethyl-ethyl]-amide] is 17-fold lower in IC50: 1000 nM for the first, 60 nM for the second.

Work on CNC(=O)c1ccc(-c2cc3c(c(C(=O)NC(CO)Cc4c[nH]c5ccc(F)cc45)c2)OC(C)(C)C=C3)cc1Cl (stereo not drawn) [Example 89, 6-(3-Chloro-4-methylcarbamoyl-phenyl)-2,2-dimethyl-2H-chromene-8-carboxylic acid [2-(5-fluoro-1H-indol-3-yl)-1-hydroxymethyl-ethyl]-amide] yielded an IC50 of 20 nM.
